The record followed here is the Kinase Knowledgebase extract (Sharma et al. 2016).

Molecules are shown by their SMILES.

Chain of PIK3CA (human) (P42336 whole entry, looked up): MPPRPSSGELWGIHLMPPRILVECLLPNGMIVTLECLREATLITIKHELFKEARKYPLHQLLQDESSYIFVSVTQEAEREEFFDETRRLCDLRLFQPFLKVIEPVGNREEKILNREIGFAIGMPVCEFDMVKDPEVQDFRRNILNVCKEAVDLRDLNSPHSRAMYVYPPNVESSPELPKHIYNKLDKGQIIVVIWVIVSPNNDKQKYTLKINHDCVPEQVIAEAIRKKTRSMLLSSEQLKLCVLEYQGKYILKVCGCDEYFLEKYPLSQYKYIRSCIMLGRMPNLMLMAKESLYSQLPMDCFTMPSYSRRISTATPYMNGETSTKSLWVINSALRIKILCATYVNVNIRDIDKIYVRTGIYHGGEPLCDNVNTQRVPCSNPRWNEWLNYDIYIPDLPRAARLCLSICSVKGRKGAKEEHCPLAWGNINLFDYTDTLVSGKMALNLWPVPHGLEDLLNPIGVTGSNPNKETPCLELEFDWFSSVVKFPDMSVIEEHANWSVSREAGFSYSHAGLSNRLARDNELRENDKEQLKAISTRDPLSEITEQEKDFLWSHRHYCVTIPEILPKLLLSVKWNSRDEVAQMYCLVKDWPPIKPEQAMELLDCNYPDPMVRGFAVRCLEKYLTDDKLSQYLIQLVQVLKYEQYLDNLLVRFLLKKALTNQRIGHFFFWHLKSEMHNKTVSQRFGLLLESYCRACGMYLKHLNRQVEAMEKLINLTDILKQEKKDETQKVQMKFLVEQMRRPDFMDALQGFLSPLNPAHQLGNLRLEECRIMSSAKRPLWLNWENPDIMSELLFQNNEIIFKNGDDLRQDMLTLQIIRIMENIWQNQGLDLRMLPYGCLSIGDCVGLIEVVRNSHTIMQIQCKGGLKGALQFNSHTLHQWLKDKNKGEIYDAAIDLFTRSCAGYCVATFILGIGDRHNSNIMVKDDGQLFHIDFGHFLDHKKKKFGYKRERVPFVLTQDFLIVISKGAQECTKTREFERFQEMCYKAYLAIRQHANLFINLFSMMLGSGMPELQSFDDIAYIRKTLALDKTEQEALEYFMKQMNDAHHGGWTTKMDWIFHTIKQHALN

This experiment addresses PIK3CA (human) (UniProt P42336). In words: Assessment of PIK3CA Kinase Activity.
Broadly, the IC50 is the concentration that gives 50% inhibition. A higher IC50 goes with lower potency. `NC(=O)c1cccc(-c2nc(N)nc3c2-c2cc(NS(=O)(=O)c4ccc(F)cc4F)c(Cl)cc2CC3)c1` returned an IC50 of 2 nM.
Molecule `Nc1nc2c(c(=O)[nH]1)-c1ccc(Cl)cc1CC2` returned a half-maximal inhibitory concentration (IC50) of 5010 nM.
Then `Nc1nc2c(c(-c3ccc(F)cc3)n1)-c1cc(S(=O)(=O)N3CCOCC3)c(Cl)cc1CC2`, with 6.3 nM; and `Nc1nc2c(c(-c3cccc(F)c3)n1)-c1cc(NS(=O)(=O)c3ccc(F)cc3F)c(Cl)cc1CC2`, with 4 nM.
In the case of `Nc1nc2c(c(-c3ccc(F)cc3)n1)-c1cc(NS(=O)(=O)c3ccc(F)cc3F)c(Cl)cc1CC2` it was 2.5 nM; in that of `Nc1nc2c(c(-c3ccncc3)n1)-c1cc(S(=O)(=O)N3CCOCC3)c(Cl)cc1CC2`, 10 nM.
As for `CS(=O)(=O)c1ccc(-c2nc(N)nc3c2-c2cc(NS(=O)(=O)c4ccc(F)cc4F)c(Cl)cc2CC3)cc1`, the IC50 stood at 2.5 nM.
Take `Nc1nc2c(c(-c3ccncc3)n1)-c1cc(NS(=O)(=O)c3ccc(F)cc3F)c(Cl)cc1CC2`: the IC50 came to 1 nM.
As for `Nc1cccc(-c2nc(N)nc3c2-c2cc(S(=O)(=O)N4CCOCC4)c(Cl)cc2CC3)c1`, the half-inhibitory concentration (IC50) was 6.3 nM.
In the case of `N#Cc1cccc(S(=O)(=O)Nc2cc3c(cc2Cl)CCc2nc(N)nc(-c4ccncc4)c2-3)c1` it was 313 nM; in that of `Nc1nc2c(c(-c3ccncc3)n1)-c1cc(NS(=O)(=O)c3ccccc3)c(Cl)cc1CC2`, 6.3 nM.
Then `Cc1ccc(-c2nc(N)nc3c2-c2cc(S(=O)(=O)N4CCOCC4)c(Cl)cc2CC3)cc1`, with 4 nM; and `Nc1nc2c(c(-c3ccccc3)n1)-c1cc(NS(=O)(=O)c3ccc(F)cc3F)c(Cl)cc1CC2`, with 4 nM.
For `CNC(=O)c1cccc(-c2nc(N)nc3c2-c2cc(NS(=O)(=O)c4ccc(F)cc4F)c(Cl)cc2CC3)c1`, the IC50 worked out at 4 nM.
In the case of `Nc1nc2c(c(-c3cccnc3)n1)-c1cc(NS(=O)(=O)c3ccc(F)cc3F)c(Cl)cc1CC2` it was 20 nM; in that of `N#Cc1ccc(S(=O)(=O)Nc2cc3c(cc2Cl)CCc2nc(N)nc(-c4ccncc4)c2-3)cc1`, 1.6 nM.
As to `CC(C)S(=O)(=O)Nc1cc2c(cc1Cl)CCc1nc(N)nc(-c3ccccc3)c1-2`, the IC50 amounted to 25 nM.
Then `CC(=O)Nc1ccc(-c2nc(N)nc3c2-c2cc(S(=O)(=O)N4CCOCC4)c(Cl)cc2CC3)cc1`, with 3.2 nM; and `COc1ccc(-c2nc(N)nc3c2-c2cc(NS(=O)(=O)c4ccc(F)cc4F)c(Cl)cc2CC3)cc1`, with 2 nM.
As for `Cn1cc(-c2nc(N)nc3c2-c2cc(NS(=O)(=O)c4ccccc4)c(Cl)cc2CC3)cn1`, the concentration for half-maximal inhibition (IC50) turned out to be 5 nM.
Molecule `NC(=O)c1ccc(-c2nc(N)nc3c2-c2cc(NS(=O)(=O)c4ccc(F)cc4F)c(Cl)cc2CC3)cc1` showed an IC50 of 4 nM.
On to `Nc1nc2c(c(-c3ccncc3)n1)-c1cc(NS(=O)(=O)c3ccc4ccccc4c3)c(Cl)cc1CC2`, for which the IC50 was determined as 405 nM.
For the molecule `Nc1nc2c(c(-c3cccnc3)n1)-c1cc(S(=O)(=O)N3CCOCC3)c(Cl)cc1CC2`, the half-maximal inhibitory concentration (IC50) amounted to 20 nM.
On to `Cn1cc(-c2nc(N)nc3c2-c2cc(NS(=O)(=O)c4ccc(F)cc4F)c(Cl)cc2CC3)cn1`, for which the 50% inhibitory concentration (IC50) was 6.3 nM.
Then `CN(C)S(=O)(=O)c1ccc(-c2nc(N)nc3c2-c2cc(NS(=O)(=O)c4ccc(F)cc4F)c(Cl)cc2CC3)cc1`, with 2.5 nM; and `CC(=O)Nc1ccc(-c2nc(N)nc3c2-c2cc(NS(=O)(=O)c4ccc(F)cc4F)c(Cl)cc2CC3)cc1`, with 2.5 nM; and `COc1cccc(-c2nc(N)nc3c2-c2cc(NS(=O)(=O)c4ccc(F)cc4F)c(Cl)cc2CC3)c1`, with 5 nM.
In the case of `Nc1nc2c(c(-c3ccncc3)n1)-c1cc(NS(=O)(=O)c3cccs3)c(Cl)cc1CC2` it was 3.2 nM; in that of `CNC(=O)c1ccc(-c2nc(N)nc3c2-c2cc(NS(=O)(=O)c4ccc(F)cc4F)c(Cl)cc2CC3)cc1`, 1.6 nM.
Then `Nc1nc2c(c(-c3ccc(F)cc3)n1)-c1cc(NS(=O)(=O)c3ccccc3)c(Cl)cc1CC2`, with 13 nM; and `CS(=O)(=O)c1cccc(-c2nc(N)nc3c2-c2cc(NS(=O)(=O)c4ccc(F)cc4F)c(Cl)cc2CC3)c1`, with 1.3 nM.
Turning to `CC(C)S(=O)(=O)Nc1cc2c(cc1Cl)CCc1nc(N)nc(-c3ccc(F)cc3)c1-2`, the 50% inhibitory concentration (IC50) is 32 nM.
In the case of `Nc1nc2c(c(-c3ccccc3)n1)-c1cc(NC(=O)c3ccc(F)cc3F)c(Cl)cc1CC2` it was 1580 nM; in that of `Cc1ccc([N+](=O)[O-])cc1S(=O)(=O)Nc1cc2c(cc1Cl)CCc1nc(N)nc(-c3ccncc3)c1-2`, 202 nM; in that of `Nc1nc2c(c(-c3ccc(S(=O)(=O)N4CCOCC4)cc3)n1)-c1cc(NS(=O)(=O)c3ccc(F)cc3F)c(Cl)cc1CC2`, 2.5 nM.
Molecule `Nc1nc2c(c(-c3cccc(S(=O)(=O)N4CCOCC4)c3)n1)-c1cc(NS(=O)(=O)c3ccc(F)cc3F)c(Cl)cc1CC2` displayed an IC50 of 7.9 nM.
Then `Nc1nc2c(c(-c3ccc(F)cc3)n1)-c1cc(S(N)(=O)=O)c(Cl)cc1CC2`, with 1.6 nM; and `Nc1nc2c(c(-c3ccncc3)n1)-c1cc(NS(=O)(=O)c3cccc(Cl)c3)c(Cl)cc1CC2`, with 2.5 nM; and `Nc1nc2c(c(-c3ccccc3)n1)-c1cc(NS(=O)(=O)c3ccoc3)c(Cl)cc1CC2`, with 16 nM.
On to `CN(C)S(=O)(=O)c1cccc(-c2nc(N)nc3c2-c2cc(NS(=O)(=O)c4ccc(F)cc4F)c(Cl)cc2CC3)c1`, for which the IC50 amounted to 3.2 nM.
In the case of `Nc1nc2c(c(-c3ccccc3F)n1)-c1cc(S(=O)(=O)N3CCOCC3)c(Cl)cc1CC2` it was 13 nM; in that of `CC(=O)Nc1cccc(-c2nc(N)nc3c2-c2cc(S(=O)(=O)N4CCOCC4)c(Cl)cc2CC3)c1`, 25 nM; in that of `CNC(=O)c1ccc(-c2nc(N)nc3c2-c2cc(S(=O)(=O)N4CCOCC4)c(Cl)cc2CC3)cc1`, 7.9 nM.
Then `CC(=O)Nc1cccc(-c2nc(N)nc3c2-c2cc(NS(=O)(=O)c4ccc(F)cc4F)c(Cl)cc2CC3)c1`, with 16 nM.
Then `Nc1nc2c(c(-c3ccccc3)n1)-c1cc(NS(=O)(=O)c3ccccc3)c(Cl)cc1CC2`, with 13 nM; and `Nc1nc2c(c(-c3ccccc3)n1)-c1cc(S(=O)(=O)N3CCOCC3)c(Cl)cc1CC2`, with 3.2 nM.
